According to ChEMBL document CHEMBL4706512, “Design, synthesis and antitumor activity of novel thiophene-pyrimidine derivatives as EGFR inhibitors overcoming T790M and L858R/T790M mutations” (Eur J Med Chem, 2020):

Experiments:
MCF7 = assay: Antiproliferative activity against human MCF7 cells assessed as inhibition of cell proliferation measured after 72 hrs by MTT assay; type: functional, cell-based; conditions: MCF7, 72 h
HeLa = assay: Antiproliferative activity against human HeLa cells assessed as inhibition of cell proliferation measured after 72 hrs by MTT assay; type: functional, cell-based
A-431 = assay: Antiproliferative activity against human A-431 cells assessed as inhibition of cell proliferation measured after 72 hrs by MTT assay; type: functional, cell-based; conditions: A-431, 72 h
A549 = assay: Antiproliferative activity against human A549 cells assessed as inhibition of cell proliferation measured after 72 hrs by MTT assay; type: functional, cell-based; conditions: A549, 72 h
L02 = assay: Cytotoxicity against human L02 cells assessed as inhibition of cell proliferation measured after 72 hrs by MTT assay; type: cell-based; conditions: L02, 72 h
[1] = molecular target: T1, Epidermal growth factor receptor (Homo sapiens, UniProt P00533); assay: Inhibition of wild type EGFR (unknown origin) using FAM-labelled peptide as substrate at 1 uM incubated for 10 mins in presence of ATP measured by mobility shift assay
Homo sapiens = species on record: Homo sapiens; assay: Inhibition of EGFR T790M mutant (unknown origin) using FAM-labelled peptide as substrate at 1 uM incubated for 10 mins in presence of ATP measured by mobility shift assay
NCI-H1975 [2] = assay: Antiproliferative activity against human NCI-H1975 cells harboring EGFR T790M/L858R double mutant assessed as inhibition of cell viability at 10 uM measured after 72 hrs by MTT assay; type: functional
NCI-H1975 [3] = assay: Antiproliferative activity against human NCI-H1975 cells harboring EGFR T790M/L858R double mutant assessed as inhibition of cell viability at 1 uM measured after 72 hrs by MTT assay; type: functional
NCI-H1975 [4] = assay: Antiproliferative activity against human NCI-H1975 cells harboring EGFR T790M/L858R double mutant assessed as inhibition of cell viability measured after 72 hrs by MTT assay; type: functional, cell-based; conditions: NCI-H1975, 72 h
[5] = Inhibition of EGFR T790M mutant (unknown origin) using FAM-labelled peptide as substrate incubated for 10 mins in presence of ATP measured by mobility shift assay; design: species or system Homo sapiens
[6] = molecular target: T1, Epidermal growth factor receptor; assay: Inhibition of wild type EGFR (unknown origin) using FAM-labelled peptide as substrate incubated for 10 mins in presence of ATP measured by mobility shift assay

T1 sequence (P00533 whole entry): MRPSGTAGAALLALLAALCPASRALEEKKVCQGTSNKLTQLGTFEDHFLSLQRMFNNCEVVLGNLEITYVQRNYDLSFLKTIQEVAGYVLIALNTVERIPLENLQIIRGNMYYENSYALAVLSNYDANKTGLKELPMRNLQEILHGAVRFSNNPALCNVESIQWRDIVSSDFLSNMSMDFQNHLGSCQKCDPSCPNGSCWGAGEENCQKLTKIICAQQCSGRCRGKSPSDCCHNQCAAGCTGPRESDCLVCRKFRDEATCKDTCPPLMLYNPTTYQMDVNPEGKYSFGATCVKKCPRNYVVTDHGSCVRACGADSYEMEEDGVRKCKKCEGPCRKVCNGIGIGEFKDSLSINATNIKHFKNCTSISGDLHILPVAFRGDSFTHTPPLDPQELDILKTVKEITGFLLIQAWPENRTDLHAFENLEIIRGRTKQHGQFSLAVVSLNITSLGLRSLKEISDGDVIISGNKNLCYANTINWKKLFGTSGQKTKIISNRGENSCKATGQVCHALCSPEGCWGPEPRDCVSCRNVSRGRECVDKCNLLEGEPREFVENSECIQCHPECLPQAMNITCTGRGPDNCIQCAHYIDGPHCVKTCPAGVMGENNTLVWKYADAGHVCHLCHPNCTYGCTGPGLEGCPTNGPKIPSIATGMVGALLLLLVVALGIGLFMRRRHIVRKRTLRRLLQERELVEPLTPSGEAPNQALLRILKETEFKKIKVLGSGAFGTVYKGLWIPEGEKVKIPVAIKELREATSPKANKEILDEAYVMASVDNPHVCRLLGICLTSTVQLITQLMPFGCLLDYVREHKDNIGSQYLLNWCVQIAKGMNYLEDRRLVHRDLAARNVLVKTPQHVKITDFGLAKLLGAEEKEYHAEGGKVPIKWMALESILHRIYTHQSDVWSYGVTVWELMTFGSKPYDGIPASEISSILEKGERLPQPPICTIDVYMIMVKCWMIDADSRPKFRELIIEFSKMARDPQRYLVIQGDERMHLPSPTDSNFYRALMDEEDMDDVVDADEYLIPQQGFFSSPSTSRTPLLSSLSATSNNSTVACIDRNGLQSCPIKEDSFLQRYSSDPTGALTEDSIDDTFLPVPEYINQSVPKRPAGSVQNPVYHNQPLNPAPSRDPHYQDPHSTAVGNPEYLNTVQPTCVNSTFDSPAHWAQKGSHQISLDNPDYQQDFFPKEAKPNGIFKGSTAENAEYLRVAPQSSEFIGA

| Compound | IC50 (MCF7) [µM] | IC50 (HeLa) [µM] | IC50 (A-431) [µM] | IC50 (A549) [µM] | inhibition [1] [%] | inhibition (Homo sapiens) [%] | IC50 (NCI-H1975 [4]) [µM] | IC50 [5] [µM] | IC50 [6] [µM] | IC50 (L02) [µM] | inhibition at 10 µM (NCI-H1975 [2]) [%] | inhibition at 1 µM (NCI-H1975 [3]) [%] |
| --- | --- | --- | --- | --- | --- | --- | --- | --- | --- | --- | --- | --- |
| C/C=C/C(=O)Nc1cccc(Oc2nc(Nc3ccc(OC)cc3)nc3ccsc23)c1 | > 50 | 45.1 | 11.8 | 13.7 |  |  |  |  |  | > 50 |  |  |
| CC(C)=CC(=O)Nc1cccc(Oc2nc(Nc3ccn(C)n3)nc3ccsc23)c1 | 43.9 | 39.6 | 38.9 | 31.9 |  |  |  |  |  |  |  |  |
| CC(C)=CC(=O)Nc1cccc(Oc2nc(Nc3cccc(C#N)c3)nc3ccsc23)c1 | 41.1 | 19.8 | 28.3 | 16.9 |  |  |  |  |  | > 50 |  |  |
| CC(C)/C=C/C(=O)Nc1cccc(Oc2nc(Nc3cccc(C#N)c3)nc3ccsc23)c1 | > 50 | 36.5 | 24.1 | 19 |  |  |  |  |  | > 50 |  |  |
| C/C=C/C(=O)Nc1cccc(Oc2nc(Nc3ccn(C)n3)nc3ccsc23)c1 | > 50 | 43.5 | 33.3 | 29.5 |  |  |  |  |  |  |  |  |
| CC(C)/C=C/C(=O)Nc1cccc(Oc2nc(Nc3ccn(C)n3)nc3ccsc23)c1 | > 50 | 48.8 | 46.1 | 29.9 |  |  |  |  |  |  |  |  |
| C=CC(=O)Nc1cccc(Oc2nc(Nc3ccc(OC)nc3)nc3ccsc23)c1 | > 50 | 47.1 | 27.8 | 20.4 |  |  |  |  |  | > 50 |  |  |
| C=CC(=O)Nc1cccc(Oc2nc(Nc3ccn(C)n3)nc3ccsc23)c1 | 37.6 | 17.3 | 13.9 | 26.5 |  |  |  |  |  |  |  |  |
| C=C(F)C(=O)Nc1cccc(Oc2nc(Nc3ccn(C)n3)nc3ccsc23)c1 | > 50 | > 50 | > 50 | > 50 |  |  |  |  |  |  |  |  |
| C/C=C/C(=O)Nc1cccc(Oc2nc(Nc3cccc(C#N)c3)nc3ccsc23)c1 | 33.1 | 23.6 | 20.1 | 11.3 |  |  |  |  |  | 47.9 |  |  |
| CCC/C=C/C(=O)Nc1cccc(Oc2nc(Nc3ccc(OC)nc3)nc3ccsc23)c1 | > 50 | > 50 | 30.3 | 21.5 |  |  |  |  |  | 41.6 |  |  |
| COc1ccc(Nc2nc(Oc3cccc(NC(=O)C=C(C)C)c3)c3sccc3n2)cc1 | 46.1 | 28.8 | 17.6 | 18.1 |  |  |  |  |  | 48.9 |  |  |
| CCC/C=C/C(=O)Nc1cccc(Oc2nc(Nc3ccn(C)n3)nc3ccsc23)c1 | 39.1 | 32.2 | 23.4 | 26.3 |  |  |  |  |  |  |  |  |
| C=C(C)C(=O)Nc1cccc(Oc2nc(Nc3ccn(C)n3)nc3ccsc23)c1 | > 50 | > 50 | > 50 | > 50 |  |  |  |  |  |  |  |  |
| C=CC(=O)Nc1cccc(Oc2nc(Nc3ccc(OC)cc3)nc3ccsc23)c1 | 16 | 26.1 | 9.3 | 8.61 |  |  | 0.207 |  |  | > 50 | 83.8 | 59.1 |
| C=CC(=O)Nc1cc(Nc2nccc(-c3cn(C)c4ccccc34)n2)c(OC)cc1N(C)CCN(C)C [OSIMERTINIB] | 3.67 | 1.83 | […] | 0.67 |  |  |  |  |  | > 50 |  |  |
| COc1ccc(Nc2nc(Oc3cccc(NC(=O)/C=C/C(C)C)c3)c3sccc3n2)cc1 | > 50 | 45.1 | 25.2 | 37.9 |  |  |  |  |  |  |  |  |
| COc1ccc(Nc2nc(Oc3cccc(NC(=O)/C=C/C(C)C)c3)c3sccc3n2)cn1 | > 50 | > 50 | > 50 | > 50 |  |  |  |  |  |  |  |  |
| C/C=C/C(=O)Nc1cccc(Oc2nc(Nc3ccc(OC)nc3)nc3ccsc23)c1 | > 50 | > 50 | 37.2 | 31.9 |  |  |  |  |  | > 50 |  |  |
| CC/C=C/C(=O)Nc1cccc(Oc2nc(Nc3ccn(C)n3)nc3ccsc23)c1 | > 50 | 49.4 | 36.2 | 25.6 |  |  |  |  |  |  |  |  |
| COc1ccc(Nc2nc(Oc3cccc(NC(=O)C=C(C)C)c3)c3sccc3n2)cn1 | > 100 | > 100 | > 50 | 40.1 |  |  |  |  |  | 36.9 |  |  |

More lines, main results first:

| IC50 (MCF7) [µM] | IC50 (HeLa) [µM] | IC50 (A-431) [µM] | IC50 (A549) [µM] | inhibition [1] [%] | inhibition (Homo sapiens) [%] | IC50 (NCI-H1975 [4]) [µM] | IC50 [5] [µM] | IC50 [6] [µM] | Compound | IC50 (L02) [µM] | inhibition at 10 µM (NCI-H1975 [2]) [%] | inhibition at 1 µM (NCI-H1975 [3]) [%] |
| --- | --- | --- | --- | --- | --- | --- | --- | --- | --- | --- | --- | --- |
| 14.6 | 20.1 | 13.1 | 10.5 |  |  |  |  |  | C/C=C/C(=O)Nc1cccc(Oc2nc(Nc3cccc(OC)c3)nc3ccsc23)c1 | 46 |  |  |
| 35 | 31.4 | 4.22 | 5.21 | 7.4 | 21.7 | 2.14 | > 1 | > 1 | CCC/C=C/C(=O)Nc1cccc(Oc2nc(Nc3ccc(OC)cc3)nc3ccsc23)c1 | > 50 | 94.3 | 3.25 |
| > 50 | 49.9 | 26.2 | 25.8 |  |  |  |  |  | CC/C=C/C(=O)Nc1cccc(Oc2nc(Nc3ccc(OC)nc3)nc3ccsc23)c1 | > 50 |  |  |
| > 50 | 36.1 | 15.1 | 16.1 |  |  |  |  |  | CC/C=C/C(=O)Nc1cccc(Oc2nc(Nc3ccc(OC)cc3)nc3ccsc23)c1 | > 50 |  |  |
| > 50 | 69.4 | 36.2 | 14.9 |  |  |  |  |  | CC/C=C/C(=O)Nc1cccc(Oc2nc(Nc3cccc(C#N)c3)nc3ccsc23)c1 | > 50 |  |  |
| 43.4 | 29.4 | 29.2 | 19.6 |  |  |  |  |  | CC/C=C/C(=O)Nc1cccc(Oc2nc(Nc3cccc(OC)c3)nc3ccsc23)c1 | > 50 |  |  |
| 35.8 | 26.1 | 25.8 | 27.7 |  |  |  |  |  | COc1cccc(Nc2nc(Oc3cccc(NC(=O)C=C(C)C)c3)c3sccc3n2)c1 |  |  |  |
| 43.9 | 27 | 23.4 | 37.1 |  |  |  |  |  | COc1cccc(Nc2nc(Oc3cccc(NC(=O)/C=C/C(C)C)c3)c3sccc3n2)c1 |  |  |  |
| 49.1 | 42.1 | 20.4 | 16.7 |  |  |  |  |  | CCC/C=C/C(=O)Nc1cccc(Oc2nc(Nc3cccc(C#N)c3)nc3ccsc23)c1 | > 50 |  |  |
| 5.02 | 7.73 | 8.09 | 5.56 | 4 | 24.5 |  | > 1 | > 1 | CCC/C=C/C(=O)Nc1cccc(Oc2nc(Nc3cccc(OC)c3)nc3ccsc23)c1 | > 50 | 14.6 | -0.18 |
